Source: ChEMBL document CHEMBL5608182, “Synthesis and evaluation of neuroactive steroids with novel pharmacophore at C-21 let identify a compound with advantageous PK profile and higher EC50 and Emax as PAM on GABAA receptor” (Eur J Med Chem, 2024)

Experiments:
[1] = biological target: T1, GABA-A receptor; alpha-1/beta-2/gamma-2 (Homo sapiens, UniProt P14867+P18507+P47870); assay: Positive allosteric modulation of synaptic alpha1beta2gamma2 GABA-A receptor (unknown origin) transfected in LTK cells assessed as potentiation of GABA-induced peak current amplitude at -80 mV holding potential preincubated for 30 secs followed by GABA stimulation for 2 secs by Q-patch assay; format: cell-based
T1 sequence (P14867 whole entry): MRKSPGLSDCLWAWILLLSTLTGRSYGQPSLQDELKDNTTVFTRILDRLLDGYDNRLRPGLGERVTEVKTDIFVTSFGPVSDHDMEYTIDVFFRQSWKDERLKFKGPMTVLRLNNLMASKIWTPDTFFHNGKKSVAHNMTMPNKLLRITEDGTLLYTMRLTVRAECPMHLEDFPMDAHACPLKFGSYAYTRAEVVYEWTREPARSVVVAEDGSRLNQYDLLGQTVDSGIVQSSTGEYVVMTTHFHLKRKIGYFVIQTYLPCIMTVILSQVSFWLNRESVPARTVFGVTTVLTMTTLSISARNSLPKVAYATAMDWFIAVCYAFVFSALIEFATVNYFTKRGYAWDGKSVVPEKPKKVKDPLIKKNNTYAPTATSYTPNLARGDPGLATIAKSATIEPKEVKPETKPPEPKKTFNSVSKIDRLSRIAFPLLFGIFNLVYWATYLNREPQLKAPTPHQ
T1 sequence (P47870 whole entry): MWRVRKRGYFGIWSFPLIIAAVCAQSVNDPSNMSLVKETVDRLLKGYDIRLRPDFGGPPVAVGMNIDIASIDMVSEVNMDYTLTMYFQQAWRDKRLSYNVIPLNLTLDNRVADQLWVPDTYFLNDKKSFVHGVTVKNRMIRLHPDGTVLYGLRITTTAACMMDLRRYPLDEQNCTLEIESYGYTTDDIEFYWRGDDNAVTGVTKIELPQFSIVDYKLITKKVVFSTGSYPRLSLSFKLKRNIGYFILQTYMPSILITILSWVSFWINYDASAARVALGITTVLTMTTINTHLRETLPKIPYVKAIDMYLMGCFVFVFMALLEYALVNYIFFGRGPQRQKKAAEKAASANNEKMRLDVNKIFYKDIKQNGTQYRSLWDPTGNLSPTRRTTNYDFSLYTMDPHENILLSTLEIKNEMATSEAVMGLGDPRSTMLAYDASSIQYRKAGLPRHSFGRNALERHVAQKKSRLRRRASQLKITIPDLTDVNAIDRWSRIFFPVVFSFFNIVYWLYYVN
T1 sequence (P18507 whole entry): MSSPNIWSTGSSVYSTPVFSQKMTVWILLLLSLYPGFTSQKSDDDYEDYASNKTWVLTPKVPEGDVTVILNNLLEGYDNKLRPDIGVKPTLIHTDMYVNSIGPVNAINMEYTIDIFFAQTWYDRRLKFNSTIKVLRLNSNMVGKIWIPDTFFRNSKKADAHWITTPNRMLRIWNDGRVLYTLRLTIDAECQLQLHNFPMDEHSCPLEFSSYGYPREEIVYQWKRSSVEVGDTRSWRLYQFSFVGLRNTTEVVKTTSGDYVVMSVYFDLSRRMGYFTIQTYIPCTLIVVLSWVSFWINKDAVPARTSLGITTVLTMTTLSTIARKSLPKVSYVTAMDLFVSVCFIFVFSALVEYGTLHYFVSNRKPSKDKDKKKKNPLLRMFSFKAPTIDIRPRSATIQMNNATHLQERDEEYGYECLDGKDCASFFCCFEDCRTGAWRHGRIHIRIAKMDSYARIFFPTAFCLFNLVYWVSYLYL

[2] = Cmax in male Sprague-Dawley rat at 24.4 micromol/kg, IG administered as single dose and measured upto 24 hrs by LC-MS/MS analysis; format: ADME; details: in vivo, po, dose 24.4 µmol/kg
[3] = Drug concentration in Sprague-Dawley rat brain at 24.4 micromol/kg, IG measured after 0.5 hrs by LC-MS/MS analysis; format: ADME, tissue-based; details: in vivo, po, dose 24.4 µmol/kg
Cytochrome P450 2D6 = Cytochrome P450 2D6 (Homo sapiens, UniProt P10635); assay: Inhibition of CYP2D6 (unknown origin); format: ADME
[4] = Metabolic stability in human liver microsomes assessed as intrinsic clearance at 1 uM preincubated for 10 mins followed by NADPH addition by LC-MS analysis; format: ADME, Microsome; details: read-out: CLH
[5] = Drug concentration in Sprague-Dawley rat brain at 24.4 micromol/kg, IG measured after 6 hrs by LC-MS/MS analysis; format: ADME, tissue-based; details: in vivo, po, dose 24.4 µmol/kg
Cytochrome P450 1A2 = biological target: T2, Cytochrome P450 1A2 (Homo sapiens, UniProt P05177); assay: Inhibition of CYP1A2 (unknown origin); format: ADME
T2 sequence (P05177 whole entry): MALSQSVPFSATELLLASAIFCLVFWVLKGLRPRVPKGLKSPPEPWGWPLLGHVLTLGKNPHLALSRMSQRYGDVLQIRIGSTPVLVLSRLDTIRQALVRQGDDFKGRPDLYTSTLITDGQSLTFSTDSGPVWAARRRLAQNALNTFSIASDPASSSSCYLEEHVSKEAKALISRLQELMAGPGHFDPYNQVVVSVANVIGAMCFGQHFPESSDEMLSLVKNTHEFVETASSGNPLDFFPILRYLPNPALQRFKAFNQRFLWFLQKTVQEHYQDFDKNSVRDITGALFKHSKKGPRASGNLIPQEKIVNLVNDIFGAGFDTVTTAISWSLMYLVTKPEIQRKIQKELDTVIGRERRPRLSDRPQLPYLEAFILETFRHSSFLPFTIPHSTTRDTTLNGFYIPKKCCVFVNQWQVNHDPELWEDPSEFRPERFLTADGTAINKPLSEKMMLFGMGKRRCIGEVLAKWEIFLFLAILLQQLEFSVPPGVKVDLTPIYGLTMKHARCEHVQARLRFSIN

[6] = Metabolic stability in human liver microsomes assessed as compound remaining at 1 uM preincubated for 10 mins followed by NADPH addition by LC-MS analysis; format: ADME, Microsome; details: read-out: Stability
[7] = Bioavailability in male Sprague-Dawley rat at 24.4 micromol/kg, IG administered as single dose and measured upto 24 hrs by LC-MS/MS analysis; format: ADME, organism-based; details: in vivo, po, 24.4 µmol/kg
[8] = AUClast in male Sprague-Dawley rat at 6.1 micromol/kg, iv administered as single dose and measured upto 24 hrs by LC-MS/MS analysis; format: ADME, organism-based; details: in vivo, dose 6.1 µmol/kg
[9] = Half life in male Sprague-Dawley rat at 24.4 micromol/kg, IG administered as single dose and measured upto 24 hrs by LC-MS/MS analysis; format: ADME; details: in vivo, po, dose 24.4 µmol/kg
[10] = Apparent volume of distribution in male Sprague-Dawley rat at 6.1 micromol/kg, iv administered as single dose and measured upto 24 hrs by LC-MS/MS analysis; format: ADME, organism-based; details: in vivo, dose 6.1 µmol/kg, read-out: Vz
[11] = biological target: Gamma-aminobutyric acid receptor subunit alpha-4/beta3/delta (Homo sapiens) (UniProt P28472+P48169+O14764); assay: Positive allosteric modulation of extrasynaptic alpha4beta3delta GABA-A receptor (unknown origin) transfected in CHO cells assessed as potentiation of GABA-induced peak current amplitude by measuring maximal efficacy at 0.01 to 10 uM at -80 mV holding potential preincubated for 30 secs followed by GABA stimulation for 2 secs by manual patch assay relative to control; format: cell-based; details: filed as positive allosteric modulator, dose 0.01-10 µM, time 32.0 sec
[12] = Acid dissociation constant, pKa of the compound; format: physicochemical

Sequence of Cytochrome P450 2D6 (P10635 whole entry): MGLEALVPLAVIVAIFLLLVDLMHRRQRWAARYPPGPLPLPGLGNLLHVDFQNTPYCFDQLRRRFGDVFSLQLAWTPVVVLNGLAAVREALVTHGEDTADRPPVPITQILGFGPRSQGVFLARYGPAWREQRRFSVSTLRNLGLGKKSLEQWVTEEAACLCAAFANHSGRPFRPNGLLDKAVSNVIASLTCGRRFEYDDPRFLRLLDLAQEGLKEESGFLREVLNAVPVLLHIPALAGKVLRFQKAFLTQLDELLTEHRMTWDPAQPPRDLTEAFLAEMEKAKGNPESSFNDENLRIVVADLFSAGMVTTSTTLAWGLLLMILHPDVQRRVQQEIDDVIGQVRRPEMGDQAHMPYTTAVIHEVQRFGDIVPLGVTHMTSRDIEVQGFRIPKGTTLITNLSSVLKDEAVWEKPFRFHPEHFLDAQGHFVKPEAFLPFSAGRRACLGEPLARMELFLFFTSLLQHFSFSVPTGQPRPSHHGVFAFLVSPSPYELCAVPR

SMILES	EC50 [1] [µM]	Cmax [2] [nM]	Ct [3] [nmol/kg]	IC50 (Cytochrome P450 2D6) [µM]	CLint scaled at 1 µM [4] [mL/min/kg]	Ct [5] [nmol/kg]	IC50 (Cytochrome P450 1A2) [µM]	remaining at 1 µM [6] [%]	bioavailability [7] [%]	AUC(0-t) at 24 h [8] [µM·h]	half-life [9] [h]	Vd [10] [L/kg]	Emax [11] [%]	pKa [12]
C[C@@]1(O)CC[C@H]2[C@H](CC[C@@H]3[C@@H]2CC[C@]2(C)[C@@H](C(=O)Cn4cnn(-c5cc(F)nc(F)c5)c4=O)CC[C@@H]32)C1	0.141	2530	2320	> 30	< 6.75	2339	> 30	98	99.6	6.03	6.58	7.38	1070	> 12
C[C@@]1(O)CC[C@H]2[C@H](CC[C@@H]3[C@@H]2CC[C@]2(C)[C@@H](C(=O)Cn4cc(C#N)cn4)CC[C@@H]32)C1 [ZURANOLONE]	0.152	2290	3103	> 30	10.6	193	> 30	72	57.7	5.21	3.8	4.66	1040	> 12
